Measurements from PMC5166568, “Flexible synthesis of cationic peptide–porphyrin derivatives for light-triggered drug delivery and photodynamic therapy” (Organic & Biomolecular Chemistry, 2016).

Key:
[1] = system: MC28 cells
[2] = system: MC28 cells; remark: listed apart in the source
[3] = system: MC28 cells; format: cell-based, rat

| Compound | cellular uptake [1] | subcellular localisation [1] | LD50 PDT ([2]; 18 h) | LD50 dark ([2]; 24 h) | reduction in viability using saporin alone [3] |
| --- | --- | --- | --- | --- | --- |
| N=C(N)NCCC[C@H](NC(=O)CN)C(=O)N[C@@H](CCCCN)C(=O)N[C@@H](CCCCN)C(=O)N[C@@H](CCCNC(=N)N)C(=O)N[C@@H](CCCNC(=N)N)C(=O)N[C@@H](CCC(N)=O)C(=O)N[C@@H](CCCNC(=N)N)C(=O)N[C@@H](CCCNC(=N)N)C(=O)N[C@@H](CCCNC(=N)N)C(=O)NCC(=O)N[C@@H](Cc1ccc(O)cc1)C(=O)N[C@@H](CCCCN)C(=O)N[C@@H](CSC1CC(=O)N(CCC(=O)Nc2ccc(-c3c4nc(c(-c5ccccc5)c5ccc([nH]5)c(-c5ccccc5)c5nc(c(-c6ccccc6)c6ccc3[nH]6)C=C5)C=C4)cc2)C1=O)C(N)=O (some centres unmarked) [Compound 20] | efficient uptake | Endolysosomal localisation | 94 ± 6 nM | ≫1 μM | – |
| saporin | – | – | – | – | approximately 10% |
